Test results reported in patent publication US20160010155A1, “KCNK3 Channel Loss-of-Function Mutants in Familial and Idiopathic Pulmonary Arterial Hypertension” (THE TRUSTEES OF COLUMBIA UNIVERSITY IN THE CITY OF NEW YORK, priority 2013, published 2016).
Values belong to the molecule of their own block, whether it stands above or below them.

Assays:
WT hKCNK3 channel = biological target: T1, WT hKCNK3 channel (Homo sapiens, UniProt O14649); experiment: Whole-cell patch clamp of WT hKCNK3 channels expressed in COS-7 cells, drug application; assay type: cell-based; conditions: 10 μM, current at +60 mV, pH 7.4
T1 construct: expressed in transfected cells; host or cells: COS-7
T1 sequence (O14649 whole entry): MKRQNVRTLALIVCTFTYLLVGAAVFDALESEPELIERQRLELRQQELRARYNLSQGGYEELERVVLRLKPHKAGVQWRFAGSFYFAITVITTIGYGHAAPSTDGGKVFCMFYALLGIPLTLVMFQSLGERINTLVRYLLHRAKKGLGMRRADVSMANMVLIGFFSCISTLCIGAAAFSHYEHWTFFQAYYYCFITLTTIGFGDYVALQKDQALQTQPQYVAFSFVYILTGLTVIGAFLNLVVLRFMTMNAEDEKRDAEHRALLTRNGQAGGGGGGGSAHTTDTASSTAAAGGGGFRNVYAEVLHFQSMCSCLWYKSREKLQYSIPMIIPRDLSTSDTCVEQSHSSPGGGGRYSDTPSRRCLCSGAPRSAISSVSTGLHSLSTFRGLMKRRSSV
Experimental: Functional analysis of the KCNK3 channel was performed to evaluate the functional effects of the rare genetic variants identified and to provide insight into the disease mechanism. pIRES-CD8-hKCNK3 was kindly provided by Florian Lesage (Institut de Pharmacologie Moléculaire et Cellulaire, Centre National de la Recherche Scientifique and Université de Nice Sophia Antipolis, Valbonne, France). hKCNK3 DNA was amplified and inserted into pcDNA 3.1 (+) vector (Invitrogen). Site-directed mutagenesis was performed using the QuikChange kit (Stratagene) and all constructs were sequenced before use. COS-7 cells (American Type Culture Collection) were grown under conventional conditions (5% CO2, DMEM (Gibco) +GlutaMax medium (Gibco) and 10% fetal bovine serum (Gibco)). […] The topology of the KCNK3 channel was based on the crystal structure of TWIK-1 channel^43 and alignment was performed using GeneDoc.^44 Membrane currents were measured with whole-cell patch-clamp procedures using Axopatch 200B amplifiers (Axon Instruments). […] Current measured at +60 mV was selected for comparison of constructs and drug actions. […] Analyzed data are shown as mean+/−S.E.M. Statistical significance was determined using one-way ANOVA. p<0.05 was considered statistically significant. […]

TASK-1 = TASK-1 (Homo sapiens, UniProt O14649); conditions: cited from earlier work
TASK-1, sequence (O14649 whole entry): as above

[1] = cited from earlier work

WT hKCNK3 current after application of drug (WT hKCNK3 channel): robust increase
Compound: CCCCCc1ccc(/C=C/C(=O)Nc2cc(Cl)ccc2C(=O)O)cc1 [ONO RS-082]

Compound: FC(F)(F)C(Cl)Br (stereo not drawn) [Halothane, 2-bromo-2-chloro-1,1,1-trifluoroethane]
effect on TASK-1 channel (TASK-1): activated

Compound: CCCCC[C@H](O)CC[C@@H]1[C@H]2Cc3cccc(OCC(=O)O)c3C[C@H]2C[C@H]1O [Treprostinil]
dose linearity of pharmacokinetics ([1]; continuous subcutaneous, dose range 1.25 to 125 ng/kg/min, two-compartment model): linear
excreted in feces ([1]; in vivo): 13%
excreted in the urine as identified metabolites ([1]; in vivo): 64%
excreted in the urine as unchanged drug ([1]; in vivo): 4%
half life ([1]; in vivo): 4 h
metabolism ([1]; in vivo): substantially metabolized by the liver

Compound: FC(F)OC(Cl)C(F)(F)F (stereo not drawn) [Isoflurane, 2-chloro-2-(difluoromethoxy)-1,1,1-trifluoro-ethane]
effect on TASK-1 channel (TASK-1): activated
